# Source: patent US12674058B2, “Compound, photosensitive resin composition comprising same, photosensitive resin film, color filter and CMOS image sensor” (SAMSUNG SDI CO., LTD., priority 2021, dated 2026)
# Assay: Measurement of solubility in dilution solvent (PGMEA)
# Assay type: physicochemical
# Settings: 0.5 g compound in PGMEA, stirred at 25° C. for 1 hour
# Procedure: 0.5 g of each compound Synthesis Examples 1 to 5 and Comparative Synthesis Examples 1 to 5 was added to a dilution solvent (PGMEA), and each corresponding solution was stirred with Mix-Rotar VMR-5 (Luchi Seieido Co., Ltd.) at 25° C. for 1 hour and then, evaluated with respect to solubility, and the results are shown in Table 2.
# Solubility Evaluation Criteria
# • 10 wt % or more of the compound (solute) was dissolved in the total amount of the diluent: ∘ • Less than 10 wt % of the compound (solute) was dissolved in the total amount of diluent: X
row,Solubility,Compound
1,◯,Cc1cccc(C)c1N(CCCN1C(=O)c2ccccc2C1=O)C1=CC2Oc3cc(N(C)CCCN(C)c4ccc5c(-c6ccccc6S(=O)(=O)[O-])c6ccc(N(CCCN7C(=O)c8ccccc8C7=O)c7c(C)cccc7C)cc6[o+]c5c4)ccc3C(c3ccccc3S(=O)(=O)O)=C2C=C1 (centres unmarked) [Synthesis Example 5]
2,◯,CCN(CCCCCCN(CC)c1ccc2c(-c3ccccc3S(=O)(=O)[O-])c3ccc(N(CCCN4C(=O)c5ccccc5C4=O)c4c(C)cccc4C)cc3[o+]c2c1)c1ccc2c(c1)OC1C=C(N(CCCN3C(=O)c4ccccc4C3=O)c3c(C)cccc3C)C=CC1=C2c1ccccc1S(=O)(=O)O (centres unmarked) [Synthesis Example 1]
3,◯,CCN(CCCCCCN(CC)c1ccc2c(-c3ccccc3S(=O)(=O)[O-])c3ccc(N(CCN4C(=O)c5ccccc5C4=O)c4c(C)cccc4C)cc3[o+]c2c1)c1ccc2c(c1)OC1C=C(N(CCN3C(=O)c4ccccc4C3=O)c3c(C)cccc3C)C=CC1=C2c1ccccc1S(=O)(=O)O (centres unmarked) [Synthesis Example 3]

# Further lines, the compound ahead of its results:
row,Compound,Solubility
1,CCN(CCCCCCN(CC)c1ccc2c(-c3ccccc3S(=O)(=O)[O-])c3ccc(N(CCCN4C(=O)c5ccccc5C4=O)c4ccccc4C)cc3[o+]c2c1)c1ccc2c(c1)OC1C=C(N(CCCN3C(=O)c4ccccc4C3=O)c3ccccc3C)C=CC1=C2c1ccccc1S(=O)(=O)O (centres unmarked) [Synthesis Example 4],◯
2,"Cc1cccc(C)c1N(CCCN1C(=O)c2ccccc2C1=O)C1=CC2Oc3cc(N(C)CCN(C)c4ccc5c(-c6ccccc6S(=O)(=O)[O-])c6ccc(N(CCCN7C(=O)c8ccccc8C7=O)c7c(C)cccc7C)cc6[o+]c5c4)ccc3C(c3ccccc3S(=O)(=O)O)=C2C=C1 (centres unmarked) [Comparative Synthesis Example 3, reference compound]",X (Less than 10 wt % of the compound (solute) was dissolved in the total amount of diluent)
3,CCN(CCCCCCN(CC)c1ccc2c(-c3ccccc3S(=O)(=O)[O-])c3ccc(N(CCCCN4C(=O)c5ccccc5C4=O)c4c(C)cccc4C)cc3[o+]c2c1)c1ccc2c(c1)OC1C=C(N(CCCCN3C(=O)c4ccccc4C3=O)c3c(C)cccc3C)C=CC1=C2c1ccccc1S(=O)(=O)O (centres unmarked) [Synthesis Example 2],◯
4,"CCN(CCCCCCN(CC)c1ccc2c(-c3ccccc3S(=O)(=O)[O-])c3ccc(N(CN4C(=O)c5ccccc5C4=O)c4c(C)cccc4C)cc3[o+]c2c1)c1ccc2c(c1)OC1C=C(N(CN3C(=O)c4ccccc4C3=O)c3c(C)cccc3C)C=CC1=C2c1ccccc1S(=O)(=O)O (centres unmarked) [Comparative Synthesis Example 5, reference compound]",X (Less than 10 wt % of the compound (solute) was dissolved in the total amount of diluent)
5,"Cc1cccc(C)c1N(CCCN1C(=O)c2ccccc2C1=O)C1=CC2Oc3cc(N(C)CCCCCCCCCCCN(C)c4ccc5c(-c6ccccc6S(=O)(=O)[O-])c6ccc(N(CCCN7C(=O)c8ccccc8C7=O)c7c(C)cccc7C)cc6[o+]c5c4)ccc3C(c3ccccc3S(=O)(=O)O)=C2C=C1 (centres unmarked) [Comparative Synthesis Example 4, reference compound]",X (Less than 10 wt % of the compound (solute) was dissolved in the total amount of diluent)
